Data reported in patent US6572896B1, “Methods for inhibiting cell motility” (A.T. Still University of Health Sciences, priority 1998, dated 2003).
“And” between values parts separate entries of the source, which are not always exact repeats. Identical values can stand only once. Like-named read-outs stand apart in the source and are kept apart here. Marks after values point to notes of the source that are not given here.

Key:
B16F10 melanoma cells [1] = assay: Motility assay in blind-well migration chambers with gelatin-coated filter; assay type: cell-based; settings: for Motility with Verapamil (mean number of cells per filter): n = 2 filters
[2] = system: A2058 human melanoma cells; settings: cited from earlier work
B16F10 cells [3] = assay: Trypan blue exclusion assay (cell viability)
Experimental: A test was run to determine the toxicity of Gd^3+ on cells when exposed for seven hours. B16F10 cells were incubated for 12 hours with Gd^3+ at a concentration of 20 μM in the RPMI-E2 solution. A different batch of B16F10 cells were incubated for 12 hours without Gd^3+ in the RPMI-E2 solution. The cells were then examined with a Trypan blue exclusion assay.

[4] = system: voltage-gated channels that control quantal neurotransmitter release; settings: Gd^3+ up to 100 μM; cited from earlier work
B16F10 cells [5] = assay: Cell growth after 12 hour Gd^3+ exposure and washout; assay type: cell-based; settings: Gd^3+ 20 μM in RPMI-E2 12 hours, washed, then growth medium without Gd^3+
Experimental: The potential long term effects of Gd^3+ on cell growth were determined. […] The cell growth was observed after the Gd^3+ was washed from the cells.

B16F10 melanoma cells [6] = assay: Microscopic examination of cell morphology; assay type: cell-based; settings: 4 hours
Experimental: Cell morphology was examined under conditions that were used in the motility assays. B16F10 melanoma cells were cultured directly on gelatin coated glass cover slips (0.1% gelatin for 2 hours and then air dried) for 24 hours under standard cell culture conditions. Culture media was then removed and the cells were washed twice with phosphate buffered saline (PBS) before being exposed to either 0.54 mM, 5.4 mM, or 54 mM K^+ in iso-osmotic saline solutions that were based on the electrolyte composition of RPMI-1640 media. Some solutions also contained GdCl3 or TbCl3 in a concentration of 20 μM. The cells were incubated at 5% CO2 and 37° C. for 4 hours before cells were photographed using an Olympus (IMT-2) inverted microscope.
In order to examine the effects of Gd^3+ and extracellular K^+ concentration on the morphology of the cells, B16F10 melanoma cells were grown under normal conditions on gelatin-coated glass coverslips. The cells were then washed twice with PBS and placed in solutions containing the following concentrations of K^+ and Gd^3+ for exposure periods of 4 hours: […]

[7] = Gd^3+ 20 μM in RPMI-E2, 12 hours
[8] = GdCl3 20 μM, RPMI-E2, normal K^+ and Ca^2+, seven hours, two independent runs

[Ca+2] [Ca^2+]
increase in the motility of the cells (B16F10 melanoma cells [1]; elevated Ca^2+ (4 mM) vs normal (0.4 mM)): ~20%
Motility (mean number of cells per filter) (B16F10 melanoma cells [1]; extracellular Ca^2+ 0.4 mM (RPMI-E, normal), no bFGF): 78 ± 4^b cells per filter
Motility (mean number of cells per filter) (B16F10 melanoma cells [1]; extracellular Ca^2+ 4.0 mM (RPMI-E4Ca, elevated), no bFGF): 100 ± 6 cells per filter

[Cl-].[Cl-].[Co+2] [CoCl2]
inhibition of cell motility (B16F10 melanoma cells [1]): approximately 87%
Motility (mean number of cells per filter) (B16F10 melanoma cells [1]; 2 mM): 43 ± 4 cells per filter
inhibition of tumor cell motility [2]: completely ineffective

[Cl][Gd]([Cl])[Cl] [GdCl3]
cells stained blue (B16F10 cells [3]; [7]): Less than 1%
viability versus cells not treated (B16F10 cells [3]; [7]): no difference in viability
Trypan Blue exclusion of vacuolated cells (membrane integrity) (B16F10 cells [3]; after 20 μM Gd^3+, low K^+, 4 hours): vacuolated cells excluded dye
Motility (mean number of cells per filter) (B16F10 melanoma cells [1]; Gd 20 μM, K^+ 0.54 mM (RPMI-E2 low K^+)): 240 ± 40^b cells per filter
Motility (mean number of cells per filter) (B16F10 melanoma cells [1]; Gd 20 μM, K^+ 54.0 mM (RPMI-E2 high K^+)): 113 ± 10 cells per filter
inhibition of cell motility (B16F10 melanoma cells [1]; GdCl3 20 μM, High Ca^2+ HEPES Ringer solution (Example 1)): 71%
Motility (mean number of cells per filter) (B16F10 melanoma cells [1]; GdCl3 20 μM, High Ca^2+ HEPES Ringer solution, 2 h preincubation + 5 h assay, bFGF): 95 ± 6 cells per filter
Motility (mean number of cells per filter) (B16F10 melanoma cells [1]; [8]): 33 ± 6 cells per filter and 50 ± 10 cells per filter
reduction of motility (B16F10 melanoma cells [1]; [8]): 73% and 75%
inhibition of cell motility (B16F10 melanoma cells [1]; Gd^3+ 20 μM, 0.54 mM K^+): 83%
inhibition of cell motility (B16F10 melanoma cells [1]; Gd^3+ 20 μM, 54 mM K^+): 90.5%
effect on voltage-gated channels [4]: no effect
effect on cell growth after washout (B16F10 cells [5]): No obvious inhibitory effect on cell growth
cell morphology (B16F10 melanoma cells [6]; 20 μM Gd^3+, low K^+ (0.54 mM)): rounded and flattened cells with prominent vacuoles
cell morphology (B16F10 melanoma cells [6]; 20 μM Gd^3+, normal K^+ (5.4 mM)): larger, rounded cells devoid of pseudopodia
cell morphology (B16F10 melanoma cells [6]; 20 μM in bathing solution): the cells had flattened and spread further

[K+] [K^+]
Motility (mean number of cells per filter) (B16F10 melanoma cells [1]; K^+ 0.54 mM, absence of Gd): 1387 ± 103^b cells per filter
Motility (mean number of cells per filter) (B16F10 melanoma cells [1]; K^+ 2.75 mM, absence of Gd): 1164 ± 1006 cells per filter
Motility (mean number of cells per filter) (B16F10 melanoma cells [1]; K^+ 3.87 mM, absence of Gd): 591 ± 40 cells per filter
Motility (mean number of cells per filter) (B16F10 melanoma cells [1]; K^+ 5.4 mM (normal, RPMI-E2), absence of Gd): 475 ± 20 cells per filter
Motility (mean number of cells per filter) (B16F10 melanoma cells [1]; K^+ 10.0 mM, absence of Gd): 578 ± 15 cells per filter
Motility (mean number of cells per filter) (B16F10 melanoma cells [1]; K^+ 16.25 mM, absence of Gd): 494 ± 49 cells per filter
Motility (mean number of cells per filter) (B16F10 melanoma cells [1]; K^+ 22.0 mM, absence of Gd): 558 ± 25 cells per filter
Motility (mean number of cells per filter) (B16F10 melanoma cells [1]; K^+ 27.5 mM, absence of Gd): 471 ± 57 cells per filter
Motility (mean number of cells per filter) (B16F10 melanoma cells [1]; K^+ 35.0 mM, absence of Gd): 646 ± 65 cells per filter
Motility (mean number of cells per filter) (B16F10 melanoma cells [1]; K^+ 54.0 mM, absence of Gd): 1188 ± 50 cells per filter
cell morphology (B16F10 melanoma cells [6]; high K^+ (54 mM), no Gd^3+): rounder and exhibited pseudopodia that appeared blunted
cell morphology (B16F10 melanoma cells [6]; low K^+ (0.54 mM), no Gd^3+): slightly more cells were observed with distinct lamellipodia

[Cl][Tb]([Cl])[Cl] [Tb^3+, TbCl3]
cell morphology (B16F10 melanoma cells [6]; 20 μM in bathing solution): the cells had flattened and spread further

COc1ccc(CCN(C)CCCC(C#N)(c2ccc(OC)c(OC)c2)C(C)C)cc1OC (centres unmarked) [Verapamil, verapamil, reference compound]
Motility with Verapamil (mean number of cells per filter) (B16F10 melanoma cells [1]; verapamil 100 μM, 0.5 mM K^+): 1116 cells per filter
Motility with Verapamil (mean number of cells per filter) (B16F10 melanoma cells [1]; verapamil 100 μM, 5 mM K^+): 434^b cells per filter and 519 cells per filter
Motility with Verapamil (mean number of cells per filter) (B16F10 melanoma cells [1]; verapamil 100 μM, 50 mM K^+): 1100 cells per filter
effect on motility (B16F10 melanoma cells [1]; verapamil 100 μM, control, high K^+ and low K^+ conditions): did not reduce motility in a way corresponding to the reduction produced by Gd^3+ and Co^2+

bFGF: Basic fibroblast growth factor used to enhance motility
Motility (mean number of cells per filter) (B16F10 melanoma cells [1]; bFGF 25 ng/ml in serum free RPMI-1640 in top well): 180 ± 30 cells per filter
increase in the motility of melanoma cells (B16F10 melanoma cells [1]; bFGF 25 ng/ml in serum free RPMI-1640 vs no bFGF): three-fold increase
